Laboratory results: US20060228333A1, “Methods for control of tumors and chronic infections by modulating immunologically informed carriers homing to tolerogenic organs or tissues” (priority 2004, published 2006)

System: thymus (homing of Brown Norway rat PBMCs)
Experiment: Thymic homing of injected donor PBMCs after drug treatment (homed cell counting in sliced thymus)
Type: in vivo, Lewis rats
Settings: for Thymic homing (cell number): control 6580; for Thymic homing compared with control and other treated groups: doses as in Table 1; for Activation of the epithelial cells of the thymus: stated in discussion of Example 1
Description: Inbred male Lewis rats (LW, RT1l) were injected intramuscularly with rapamycine (RAPA; 0.1 mg/kg/d), tacrolimus (TAC; 0.2 mg/kg/d), cyclosporine A (CsA; 10 mg/kg), PGE 1 (32 ug/kg or 10 ug/kg) or a control.
One hour after the above treatments, 1.2-1.6×10^7 peripheral blood mononuclear cells (PBMCs) were obtained from Brown Norway rats (BN, RT1n). The cells were stained with IUBD and then injected intraperitoneally. 24 hours after cellular inoculation, the animals were sacrificed. A thymectomy was performed, the thymus was sliced and homed cell counting was performed. Homed cells may be counted by any method known to one of skill in the art. In this case, as the cells were stained before inoculation, the homed cells in the thymus were identified by the staining. The results of the cell counting are presented in Tables 1 and 2 for each treatment group: […]

[1] = Lewis rats, i.m. RAPA 0.1 mg/kg/d, TAC 0.2 mg/kg/d, CsA 10 mg/kg, 1.2-1.6 × 10^7 BN PBMCs i.p. one hour later, thymus counted 24 hours after inoculation

C=CC[C@@H]1/C=C(\C)C[C@H](C)C[C@H](OC)[C@H]2O[C@@](O)(C(=O)C(=O)N3CCCC[C@H]3C(=O)O[C@H](/C(C)=C/[C@@H]3CC[C@@H](O)[C@H](OC)C3)[C@H](C)[C@@H](O)CC1=O)[C@H](C)C[C@@H]2OC [FK506, tacrolimus] was tested, and the “Thymic homing (cell number)” value [1] was 2360, the “Thymic homing compared with control and other treated groups” value was “inactivated PBMCs that homed to the thymus” and the “Activation of the epithelial cells of the thymus” value was “do activate”.

For CCCCC[C@H](O)/C=C/[C@H]1[C@H](O)CC(=O)[C@@H]1CCCCCCC(=O)O [PGE1], the “Thymic homing (cell number)” value (PGE1 10 ug/kg i.m., 1.6 × 10^7 donor cells injected, 24 hours) was 8890, the “Thymic homing (cell number)” value (PGE1 32 ug/kg i.m., 1.6 × 10^7 donor cells injected, 24 hours) was 4680 and the “Effect on epithelial cells and PBMCs” value (PGE1 high dose 32 ug/kg) was “inactivated the epithelial cells as well as the PBMCs”. The “Thymic homing compared with low dose and control” value (PGE1 high dose 32 ug/kg) was “less thymic homing than low doses”.

CO[C@H]1C[C@@H]2CC[C@@H](C)[C@@](O)(O2)C(=O)C(=O)N2CCCC[C@H]2C(=O)O[C@H]([C@H](C)C[C@@H]2CC[C@@H](O)[C@H](OC)C2)CC(=O)[C@H](C)/C=C(\C)[C@@H](O)[C@@H](OC)C(=O)[C@H](C)C[C@H](C)/C=C/C=C/C=C/1C [RAPA, rapamycine] was tested, and the “Thymic homing (cell number)” value [1] was 920.

For cyclosporine A [CsA], the “Thymic homing (cell number)” value [1] was 3365, the “Thymic homing compared with control and other treated groups” value was “inactivated PBMCs that homed to the thymus” and the “Activation of the epithelial cells of the thymus” value was “do activate”.
